From US10660908B2, “Pharmaceutical spray composition comprising a vitamin D analogue and a corticosteroid” (LEO Pharma A/S, priority 2010, dated 2020)
“Also recorded” adds a separate entry of the source.

Columns and labels:
[1] = Solubility of calcipotriol and BDP in different propellant mixtures (Example 1); type: physicochemical; details: for dissolution in propellant: 100% DME as the propellant; for dissolution in propellant mixture: ratio of butane to DME of 4:3, in both the propellant and vehicle phases, 67 mg BDP, 13 mg calcipotriol, 20 g vehicle
Description: 2×12 100 ml glass bottles fitted with a valve and actuator were filled with compositions containing 67 mg BDP, 13 mg calcipotriol, 20 g vehicle (comprising liquid paraffin, white soft paraffin and PPG-15-stearyl ether) and varying amounts of DME and butane as shown in Table 1. The composition formed a continuous phase and a dispersed phase presumed to be composed of long-chain alkanes (with ≥50 carbon atoms in the chain) present in the white soft paraffin. The dispersed phase sedimented in the bottom portion of the composition on standing. Thus, the top portion of the composition contained only the continuous phase, while the bottom portion of the composition was composed of a mixture of continuous and dispersed phases.
The sprayed samples were placed on a water bath at 40° C. for 5 hours until the propellant had evaporated. The samples were then cooled for 1 hour at room temperature.
Column: Agilent Zorbas Eclipse Plus C18, 150×4.6 mm, 3.5 μm
Mobile phase: acetonitrile/methanol/0.01M (NH4)2HPO4, pH 6.0, 25:45:30 (v/v/v)
Detection: […]. Calculation at 264 nm for calcipotriol and 240 nm for BDP

[2] = Physical stability by polarized light microscopy (Example 1); type: physicochemical; details: compositions left to stand for 4 months
Description: The physical stability of calcipotriol and BDP in the composition was determined by polarized light microscopy.

[3] = Chemical stability of calcipotriol/BDP in the presence of different inner lacquers (Example 6); type: physicochemical
Description: Batches of Composition A prepared as described in Example 2 and placed in aluminium spray containers provided with two different types of inner lacquer, an epoxyphenol based lacquer (HOBA 7940/7407) and a polyimide-polyamide based lacquer (HOBA 8460), respectively, were tested for chemical stability of the active ingredients after standing for 1 month at 40° C. by spraying samples of each batch into a glass and subjecting them to HPLC by the procedure described in Example 3.

[4] = Chemical stability of calcipotriol/BDP in the presence of different gasket materials (Example 8); type: physicochemical
Description: In order to test the compatibility of the composition with various gasket materials, samples were prepared with Composition E, see Example 2, filled in aluminum spray containers with a polyamide-polyimide inner lacquer and closed with a valve cup crimped to the container body. To each container, 10 pieces or an equivalent amount of gasket test material were added to the spray container and allowed to be submerged in the composition. The containers were stored at 25° C. or 40° C. and tested after 1 and 3 months at 40° C., and after 3 months at 25° C.
After storage, the composition was sprayed out in a glass bottle, and the propellants were allowed to evaporate for 2 days. The non-volatile part of the composition was analyzed for calcipotriol, betamethasone dipropionate and their related organic impurities.
The amount of calcipotriol was determined by HPLC after liquid extraction followed by a controlled isomerization at 50° C. Methyl testosterone was used as the internal standard. The following conditions were used for the HPLC analysis:
Column: LiChrospher RP-18, 125×4 mm, 5 μm
Mobile phase: Acetonitrile/methanol/0.01M (NH4)2PO4 (20:50:30)
Run time: Approx. 9 minutes
The organic impurities related to calcipotriol were determined by HPLC after liquid extraction, using the following conditions:
Column: YMC ODS-AM, 150×4.6 mm, 3 μm
Run time: 2 times the retention time of calcipotriol
The amount of betamethasone dipropionate was determined by HPLC after liquid extraction, using beclomethasone dipropionate as internal standard and the following HPLC conditions:
Column: Superspher RP-18, 75×4 mm, 4 μm
Mobile phase: Acetonitrile/water (50:55)
The organic impurities related to betamethasone dipropionate were extracted by liquid extraction and analyzed by HPLC using the following conditions:
Mobile phase: Acetonitrile/0.05M (NH4)2PO4 pH 7 (50:55)
Run time: Approx. 20 minutes

[5] = one study, M. Hannuksela et al., Contact Dermatitis 1, 1975; cited from earlier work
[6] = Composition E in contact with Buna and NPR gaskets
[7] = Composition E in contact with Viton and EPDM gaskets

SMILES | dissolution in propellant [1] | dissolution in propellant mixture [1] | physical stability (recrystallization) [2] | chemical stability: effect of the composition of the inner lacquers ([3]; epoxyphenol vs polyimide-polyamide lacquer) | stability (in words) [4, 6] | stability (in words) [4, 7] | chemical stability (in words) ([3]; epoxyphenol based inner lacquer of the spray container) | chemical stability (in words) ([3]; polyimide-polyamide based inner lacquer) | number of irritant reactions [5]
CCC(=O)OCC(=O)[C@@]1(OC(=O)CC)[C@@H](C)C[C@H]2[C@@H]3CCC4=CC(=O)C=C[C@]4(C)[C@@]3(F)[C@@H](O)C[C@@]21C [betamethasone dipropionate] | completely dissolved | completely dissolved | neither calcipotriol or BDP recrystallize | much less affected | decomposition | did not have negative impact |  |  | 
C=C1/C(=C\C=C2/CCC[C@]3(C)[C@@H]([C@H](C)/C=C/[C@@H](O)C4CC4)CC[C@@H]23)C[C@@H](O)C[C@@H]1O [calcipotriol, Calcipotriol] | completely dissolved | completely dissolved | neither calcipotriol or BDP recrystallize |  | decomposition | did not have negative impact | unacceptably degraded; also recorded: unacceptable chemical degradation | acceptable; also recorded: satisfactory | 
CC(O)CO (centres unmarked) [propylene glycol] |  |  |  |  |  |  |  |  | 12.5%
